# According to patent US9198845B2, “Glutamine derivatives as deodorants” (Givaudan S.A., priority 2010, dated 2015):
# Like-named read-outs stand apart in the source and are kept apart here.
# Experiments:
# Assay type in all cases: cell-based
# Corynebacterium Ax 20 = test: Inhibition of release of 3-hydroxy-3-methyl-hexanoic acid from Nα-(3-hydroxy-3-methyl-hexanoyl)-glutamine by bacterial cells (GC-analysis); settings: for inhibition at 10 ppm / inhibition at 100 ppm / inhibition at 500 ppm / inhibition at 1000 ppm: Corynebacterium; for inhibition at 500 ppm: 500 ppm test compound; for inhibition at 1000 ppm: 1000 ppm test compound; for kind of inhibition (true inhibitor or alternative substrate): conclusion from Tables 1 and 2, prolonged preincubation; for IC 50 (Concentration for 50% inhibition of malodour release): estimated from the data in Table 1; for inhibitory activity compared to compound II: relative to compound II; for inhibition of malodour release: Compound Ia; for efficacy as inhibitors: general statement in the description
# Experimental: (§1) Corynebacterium Ax 20 was grown overnight, harvested and resuspended in a phosphate buffer (50 mM, pH 7.5). Different compounds were dissolved in dimethylsulfoxide and added to the cells at a final concentration of 10 ppm, 100 ppm 500 ppm and 1000 ppm. The cells were then preincubated with the test agent for 30 min, 4 h, 8 h or 24 h. After this pre-incubation period, the natural substrate Nα-(3-hydroxy-3-methyl-hexanoyl)-glutamine was added (1 mM final concentration) and the cells were further incubated for 90 min. The released 3-hydroxy-3-methyl-hexanoic acid was determined by GC-analysis and compared to control samples to assess the […] malodor reducing capacity of a given compound in the bacterial cells. The samples were then further analysed to determine the cleavage of the synthetic compound by the action of the bacterial enzymes.
# [1] = system: Ax20, Ax30, Ax43, Ax52, Ax73; test: Inhibition of release of 3-hydroxy-3-methyl-hexanoic acid, average over bacterial species; settings: for inhibition at 10 ppm / inhibition at 100 ppm: average of Ax20, Ax30, Ax43, Ax52, Ax73
# Experimental: as §1, with “The cells were then preincubated with the test agent for 30 min, 4 h, 8 h or 24 h.” left out
# (§2) The inhibition of malodour release was tested on different bacterial species, all isolated from the human axilla. The method from Example 2 was used.
# Ax43 = test: Inhibition of release of 3-hydroxy-3-methyl-hexanoic acid in different bacterial species; settings: Corynebacterium tuberculostearicum
# Experimental: as §1, §2
# Ax52 = test: as above; settings: Corynebacterium mucifaciens
# Experimental: as §1, with “The cells were then preincubated with the test agent for 30 min, 4 h, 8 h or 24 h.” left out
# as §2
# Ax30 = test: as above; settings: Arthrobacter woluwensis
# Experimental: as §1, with “The cells were then preincubated with the test agent for 30 min, 4 h, 8 h or 24 h.” left out
# as §2
# Ax73 = test: as above; settings: Corynebacterium coyleae
# Experimental: as §1, with “The cells were then preincubated with the test agent for 30 min, 4 h, 8 h or 24 h.” left out
# as §2
# [2] = AX20, preincubation 0.5 h, 10 ppm test compound, read-out: % inhibition of the release of 3-hydroxy-3-methyl-hexanoic acid
# [3] = AX20, preincubation 0.5 h, 100 ppm test compound, read-out: % inhibition of the release of 3-hydroxy-3-methyl-hexanoic acid
# [4] = AX20, preincubation 4 h, 10 ppm test compound, read-out: % inhibition of the release of 3-hydroxy-3-methyl-hexanoic acid
# [5] = AX20, preincubation 4 h, 100 ppm test compound, read-out: % inhibition of the release of 3-hydroxy-3-methyl-hexanoic acid
# [6] = AX20, preincubation 8 h, 10 ppm test compound, read-out: % inhibition of the release of 3-hydroxy-3-methyl-hexanoic acid
# [7] = AX20, preincubation 8 h, 100 ppm test compound, read-out: % inhibition of the release of 3-hydroxy-3-methyl-hexanoic acid
# [8] = AX20, preincubation 24 h, 10 ppm test compound, read-out: % inhibition of the release of 3-hydroxy-3-methyl-hexanoic acid
# [9] = AX20, preincubation 24 h, 100 ppm test compound, read-out: % inhibition of the release of 3-hydroxy-3-methyl-hexanoic acid
# [10] = AX20, 100 ppm test compound, method of example 2, preincubation time not stated, read-out: % Inhibition of release of 3-hydroxy-3-methyl-hexanoic acid (100 ppm test compound)
compound,measurement,setting,value
"CCCCC(CC)COC(=O)N[C@@H](CCC(N)=O)C(=O)O (stereo partly drawn) [Compound II, reference compound]",inhibition at 10 ppm,Corynebacterium Ax 20; [2],2.8%
same,inhibition at 100 ppm,Corynebacterium Ax 20; [3],33.4%
same,inhibition at 500 ppm,"Corynebacterium Ax 20; AX20, preincubation 0.5 h",76.6%
same,inhibition at 1000 ppm,"Corynebacterium Ax 20; AX20, preincubation 0.5 h",83%
same,inhibition at 10 ppm,Corynebacterium Ax 20; [4],-4.4%
same,inhibition at 100 ppm,Corynebacterium Ax 20; [5],-25.2%
same,inhibition at 500 ppm,"Corynebacterium Ax 20; AX20, preincubation 4 h",59.9%
same,inhibition at 1000 ppm,"Corynebacterium Ax 20; AX20, preincubation 4 h",79.5%
same,inhibition at 10 ppm,Corynebacterium Ax 20; [6],8.3%
same,inhibition at 100 ppm,Corynebacterium Ax 20; [7],-9.8%
same,inhibition at 500 ppm,"Corynebacterium Ax 20; AX20, preincubation 8 h",-5.6%
same,inhibition at 1000 ppm,"Corynebacterium Ax 20; AX20, preincubation 8 h",41.3%
same,inhibition at 10 ppm,Corynebacterium Ax 20; [8],-1%
same,inhibition at 100 ppm,Corynebacterium Ax 20; [9],-13.3%
same,inhibition at 500 ppm,"Corynebacterium Ax 20; AX20, preincubation 24 h",-28.8%
same,inhibition at 1000 ppm,"Corynebacterium Ax 20; AX20, preincubation 24 h",-23.1%
same,kind of inhibition (true inhibitor or alternative substrate),Corynebacterium Ax 20,alternative substrate
same,IC 50 (Concentration for 50% inhibition of malodour release),Corynebacterium Ax 20; preincubation time 0.5 h,253.3 ppm
same,IC 50 (Concentration for 50% inhibition of malodour release),Corynebacterium Ax 20; preincubation time 4 h,387.2 ppm
same,IC 50 (Concentration for 50% inhibition of malodour release),Corynebacterium Ax 20; preincubation time 8 h,>1000 ppm
same,IC 50 (Concentration for 50% inhibition of malodour release),Corynebacterium Ax 20; preincubation time 24 h,>>1000 ppm
"CCCCC(CC)CNC(=O)N[C@@H](CCC(N)=O)C(=O)O (stereo partly drawn) [Compound Ia, N2-[(2-ethylhexylamino)carbonyl]-L-glutamine]",inhibition at 10 ppm,[1]; preincubation 0.5 h,84.6%
same,inhibition at 100 ppm,[1]; preincubation 0.5 h,89.6%
same,inhibition at 10 ppm,[1]; preincubation 2 h,79.2%
same,inhibition at 100 ppm,[1]; preincubation 2 h,94.6%
same,activity in different bacterial species,[1]; conclusion from Table 4,active in all bacterial species
same,inhibition at 10 ppm,Ax43; preincubation 0.5 h,93%
same,inhibition at 100 ppm,Ax43; preincubation 0.5 h,97%
same,inhibition at 10 ppm,Ax43; preincubation 2 h,97%
same,inhibition at 100 ppm,Ax43; preincubation 2 h,99%
same,inhibitory activity compared to compound II,Corynebacterium Ax 20; 0.5 h preincubation time,> 25 fold
same,inhibitory activity compared to compound II,Corynebacterium Ax 20; 8 h preincubation time,> 100 times
same,inhibition of malodour release,Corynebacterium Ax 20; 10 ppm combined with Cosmocil CQ 100 ppm,58.8
same,inhibition of malodour release,Corynebacterium Ax 20; 10 ppm combined with Cosmocil CQ 200 ppm,75.6
same,inhibition of malodour release,Corynebacterium Ax 20; 10 ppm combined with Cosmocil CQ 500 ppm,85.2
same,inhibition of malodour release,Corynebacterium Ax 20; 100 ppm combined with Cosmocil CQ 100 ppm,85.9
same,inhibition of malodour release,Corynebacterium Ax 20; 100 ppm combined with Cosmocil CQ 200 ppm,95.6
same,inhibition at 100 ppm,Corynebacterium Ax 20; [10],79.8%
same,inhibition at 10 ppm,"Corynebacterium Ax 20; AX20, Ax20, preincubation 0.5 h, 10 ppm, read-out: % inhibition of release of 3-hydroxy-3-methyl-hexanoic acid",51%
same,inhibition at 100 ppm,"Corynebacterium Ax 20; AX20, Ax20, preincubation 0.5 h, 100 ppm, read-out: % inhibition of release of 3-hydroxy-3-methyl-hexanoic acid",81%
same,inhibition at 10 ppm,"Corynebacterium Ax 20; AX20, Ax20, preincubation 2 h, 10 ppm, read-out: % inhibition of release of 3-hydroxy-3-methyl-hexanoic acid",50%
same,inhibition at 100 ppm,"Corynebacterium Ax 20; AX20, Ax20, preincubation 2 h, 100 ppm, read-out: % inhibition of release of 3-hydroxy-3-methyl-hexanoic acid",86%
same,inhibition at 10 ppm,"Corynebacterium Ax 20; AX20, Compound Ia, 10 ppm alone (Cosmocil CQ 0 ppm), read-out: inhibition of malodour release",61%
same,inhibition at 100 ppm,"Corynebacterium Ax 20; AX20, Compound Ia, 100 ppm alone (Cosmocil CQ 0 ppm), read-out: inhibition of malodour release",75.8%
same,inhibition at 10 ppm,Corynebacterium Ax 20; [2],61%
same,inhibition at 100 ppm,Corynebacterium Ax 20; [3],75.8%
same,inhibition at 500 ppm,"Corynebacterium Ax 20; AX20, preincubation 0.5 h",92.4%
same,inhibition at 1000 ppm,"Corynebacterium Ax 20; AX20, preincubation 0.5 h",92.5%
same,inhibition at 10 ppm,Corynebacterium Ax 20; [4],52.2%
same,inhibition at 100 ppm,Corynebacterium Ax 20; [5],81.2%
same,inhibition at 500 ppm,"Corynebacterium Ax 20; AX20, preincubation 4 h",100%
same,inhibition at 1000 ppm,"Corynebacterium Ax 20; AX20, preincubation 4 h",91.5%
same,inhibition at 10 ppm,Corynebacterium Ax 20; [6],65.2%
same,inhibition at 100 ppm,Corynebacterium Ax 20; [7],86%
same,inhibition at 500 ppm,"Corynebacterium Ax 20; AX20, preincubation 8 h",100%
same,inhibition at 1000 ppm,"Corynebacterium Ax 20; AX20, preincubation 8 h",91.8%
same,inhibition at 10 ppm,Corynebacterium Ax 20; [8],19.9%
same,inhibition at 100 ppm,Corynebacterium Ax 20; [9],83.2%
same,inhibition at 500 ppm,"Corynebacterium Ax 20; AX20, preincubation 24 h",100%
same,inhibition at 1000 ppm,"Corynebacterium Ax 20; AX20, preincubation 24 h",89.6%
same,kind of inhibition (true inhibitor or alternative substrate),Corynebacterium Ax 20,true inhibitor
same,efficacy as inhibitors,Corynebacterium Ax 20,particularly good efficacy as inhibitors
same,IC 50 (Concentration for 50% inhibition of malodour release),Corynebacterium Ax 20; preincubation time 0.5 h,<10 ppm
same,IC 50 (Concentration for 50% inhibition of malodour release),Corynebacterium Ax 20; preincubation time 4 h,<10 ppm
same,IC 50 (Concentration for 50% inhibition of malodour release),Corynebacterium Ax 20; preincubation time 8 h,<10 ppm
same,IC 50 (Concentration for 50% inhibition of malodour release),Corynebacterium Ax 20; preincubation time 24 h,52.8 ppm
same,inhibition at 10 ppm,Ax52; preincubation 0.5 h,77%
same,inhibition at 100 ppm,Ax52; preincubation 0.5 h,83%
same,inhibition at 10 ppm,Ax52; preincubation 2 h,86%
same,inhibition at 100 ppm,Ax52; preincubation 2 h,94%
same,inhibition at 10 ppm,Ax30; preincubation 0.5 h,95%
same,inhibition at 100 ppm,Ax30; preincubation 0.5 h,100%
same,inhibition at 10 ppm,Ax30; preincubation 2 h,93%
same,inhibition at 100 ppm,Ax30; preincubation 2 h,100%
same,inhibition at 10 ppm,Ax73; preincubation 0.5 h,107%
same,inhibition at 100 ppm,Ax73; preincubation 0.5 h,87%
same,inhibition at 10 ppm,Ax73; preincubation 2 h,70%
same,inhibition at 100 ppm,Ax73; preincubation 2 h,94%
"NC(=O)CC[C@H](NC(=O)NCc1ccccc1)C(=O)O [Compound Ib, N2-[(benzylamino)carbonyl]-L-glutamine]",inhibition at 100 ppm,Corynebacterium Ax 20; [10],61%
same,efficacy as inhibitors,Corynebacterium Ax 20,particularly good efficacy as inhibitors
"NC(=O)CC[C@H](NC(=O)Nc1cccc(Cc2ccccc2)c1)C(=O)O [Example 1c, N2-[(3-benzylphenylamino)carbonyl]-L-glutamine]",inhibition at 100 ppm,Corynebacterium Ax 20; [10],71%
